Test results from patent publication US11203577B2, “Sulfonyl-structure-containing triazinone derivatives, their preparation methods and their uses in insect killing and/or bacterium killing” (Nankai University, priority 2017, dated 2021).
Read-outs that look alike come from different tables or passages of the source.

Assays:
[1] = tested on: Rice bakanae disease; assay: In vitro fungicidal activity, PDA colony diameter; format: cell-based; conditions: read-out: Fungicidal activity (%) Rice bakanae disease
[2] = tested on: Cucumber fusarium wilt; assay: In vitro fungicidal activity, PDA colony diameter; format: cell-based; conditions: 96 h, 50 mg/kg, inhibition of colony diameter, read-out: Fungicidal activity (%) Cucumber fusarium wilt
[3] = tested on: Cercospora brown spot of peanut; assay: In vitro fungicidal activity, PDA colony diameter; format: cell-based; conditions: 96 h, 50 mg/kg, inhibition of colony diameter, read-out: Fungicidal activity (%) Cercospora brown spot of peanut
[4] = tested on: Potato late blight; assay: microbe, parasite or virus in culture; format: cell-based; conditions: Phytophthora infestans, 96 h, read-out: Fungicidal activity (%) Potato late blight
[5] = tested on: Cotton bollworms; assay: Test of insecticidal activity against cotton bollworms (pesticide mixed into feedstuff); conditions: read-out: Mortalities (%) Cotton bollworms
Protocol: Method of testing against cotton bollworms: the pesticide is mixed into the feedstuff, i.e., 3 mL prepared solution is added into about 27 g freshly prepared feedstuff; thus, required concentration is obtained by diluting by 10 times.

[6] = tested on: bean aphides (Aphis laburni Kaltenbach); assay: Test of insecticidal activity against aphides (leaf immersion, checked after 96 h); conditions: for insecticidal activity against aphides compared with pymetrozine: 5 mg/kg
Protocol: The insecticidal activity against aphides is tested through the following steps: the tested aphides are bean aphides (Aphis laburni Kaltenbach), a normal colony fed with broad bean leaves in a laboratory. The pesticide is weighed, 1 mL DMF is added to dissolve the pesticide, then two drops of emulsifier, Tween-20 are added, and distilled water is added in an appropriate amount; the mixture is stirred to a homogeneous state to prepare pesticide solution at required concentration (see the following table for the specific concentration). […] In a control group, only emulsifier and solvent are added into distilled water, and the mixture is stirred to a homogeneous state.

[7] = tested on: mosquito larvae (Culer pipiens pallens); assay: Test of insecticidal activity against mosquito larvae (checked after 24 h); conditions: 24 h, read-out: Mortalities (%) against mosquito larvae
Protocol: Method of testing against mosquito larvae: the tested mosquito larvae are Culer pipiens pallens, a normal colony fed indoor. About 5 mg compound to be tested is weighed and loaded into a penicillin vial, 5 mL acetone (or an appropriate solvent) is added into the vial, and the vial is oscillated to dissolve the compound; thus, 1,000 ppm mother liquid is obtained. 1 mL mother liquid is weighed and added into a 100 mL beaker filled with 89 mL water, 10 mosquito larvae in the early stage of the 4th instar together with 10 mL feeding solution are poured into the beaker; thus, the concentration of the pesticide solution is 10 ppm (the pesticide solutions with other concentrations are attained by diluting the mother liquid by corresponding times). […] Water solution that contains 0.5 mL test solvent is used as a blank sample.

[8] = tested on: Watermelon anthracnose; assay: In vitro fungicidal activity, PDA colony diameter; format: cell-based; conditions: read-out: Fungicidal activity (%) Watermelon anthracnose
[9] = tested on: Apple ring rot; assay: In vitro fungicidal activity, PDA colony diameter; format: cell-based; conditions: inhibition of colony diameter
Protocol: (§1) Here, the test is described in an example of Alternaria solani; it can be replaced by other fungi.
(§2) In vitro testing method: Alternaria solani is inoculated to a PDA culture medium and cultured for 7 days, a fungus dish with a diameter of […] is prepared on the periphery of the colony with a punch and inoculated to a PDA culture medium that contains pesticide at a concentration of 50 mg/kg and a PDA culture medium that doesn't contain the pesticide, and are cultured for 4 days respectively; then, the colony diameters are measured, and the inhibition percentages of the pesticides are calculated by comparing with the control sample.

[10] = tested on: Capsicum phytophthora blight; assay: In vitro fungicidal activity, PDA colony diameter; format: cell-based; conditions: 96 h
Protocol: as §1, §2

[11] = tested on: Corn southern leaf blight; assay: In vitro fungicidal activity, PDA colony diameter; format: cell-based; conditions: 50 mg/kg, inhibition of colony diameter; read-out: Fungicidal activity (%) Corn southern leaf blight
[12] = tested on: Wheat head blight; assay: whole plant or invertebrate; format: cell-based; conditions: Triticum aestivum, read-out: Fungicidal activity (%) Wheat head blight
[13] = tested on: Armyworms; assay: Test of insecticidal activity against armyworms (leaf immersion); conditions: 600 mg/kg, 3-4 days
[14] = tested on: Tomato early blight; assay: In vitro fungicidal activity, PDA colony diameter; format: cell-based, Alternaria solani; conditions: read-out: Fungicidal activity (%) Tomato early blight
[15] = tested on: Wheat sheath blight; assay: In vitro fungicidal activity, PDA colony diameter; format: cell-based; conditions: 50 mg/kg, inhibition of colony diameter; read-out: Fungicidal activity (%) Wheat sheath blight
[16] = tested on: Maize borers; assay: Test of insecticidal activity against maize borers (leaf immersion); conditions: read-out: Mortalities (%) Maize borers
[17] = tested on: Sclerotinia rot of colza; assay: In vitro fungicidal activity, PDA colony diameter; format: cell-based; conditions: 96 h, 50 mg/kg, inhibition of colony diameter, read-out: Fungicidal activity (%) Sclerotinia rot of colza
[18] = tested on: Rice sheath blight; assay: In vitro fungicidal activity, PDA colony diameter; format: cell-based; conditions: 50 mg/kg, inhibition of colony diameter; read-out: Fungicidal activity (%) Rice sheath blight
[19] = 50 mg/kg, inhibition of colony diameter
[20] = Aphis, 96 h, read-out: Mortalities (%) against aphides

Row | Structure (SMILES) | inhibition at 50 mg/kg [1, 19] | inhibition of growth at 50 mg/kg [2] | inhibition of growth at 50 mg/kg [3] | inhibition of growth at 50 mg/kg [4] | mortality at 600 mg/kg [5] | mortality at 100 mg/kg [6, 20] | mortality at 600 mg/kg [6, 20] | mortality at 10 mg/kg [7] | inhibition at 50 mg/kg [9] | inhibition of growth at 50 mg/kg [10] | inhibition at 50 mg/kg [11] | inhibition at 50 mg/kg [12] | Mortalities (%) Armyworms [13] | inhibition at 50 mg/kg [14, 19] | inhibition at 50 mg/kg [15] | mortality at 600 mg/kg [16] | inhibition of growth at 50 mg/kg [17] | inhibition at 50 mg/kg [18] | mortality at 10 mg/kg [6, 20] | inhibition at 50 mg/kg [8, 19] | also measured
1 | CC1=NNC(=O)N(NS(=O)(=O)c2ccc3c(c2)OCCO3)C1 [Ia-34, N-(6-methyl-3-oxo-2,3-dihydro-1,2,4-triazin-4(5H)-yl)-2,3-dihydrobenzo[b][1,4]dioxin-6-sulfonamide] | 12.5% | 8.8% | 13% | 3.1% | 10% | 35% | 90% | 15% | 39.2% | 18.8% | 10.3% | 10.9% | 15% | 16.1% | 36.8% | 10% | 6.6% | 4.7% | – | – | inhibition at 50 mg/kg [8]: 18.8%
2 | CC1=NNC(=O)N(NS(=O)(=O)c2ccc(C(C)(C)C)cc2)C1 [Ia-15, 4-tert-butyl-N-(6-methyl-3-oxo-2,3-dihydro-1,2,4-triazin-4(5H)-yl)-benzenesulfonamide] | 24.1% | 8.8% | 12% | 9.7% | 40% | 100% | 100% | 100% | 16.2% | 5.6% | 9.3% | 13.5% | 60% | 20.9% | 9.3% | 45% | 15.8% | 17.4% | 100% | 14.7% | mortality at 2.5 mg/kg [6, 20]: 10%; mortality at 5 mg/kg [6, 20]: 85%; mortality at 2 mg/kg [7]: 40%; mortality at 5 mg/kg [7]: 100%
3 | CC1=NNC(=O)N(NS(=O)(=O)Cc2ccccc2)C1 [Ia-7, N-(6-methyl-3-oxo-2,3-dihydro-1,2,4-triazin-4(5H)-yl)-phenylmethylsulfonamide] | 38.9% | 0% | 15.8% | 33.3% | 35% | 75% | 100% | 70% | 41.4% | 36.7% | 20.8% | 30% | 0% | – | 63.6% | 0% | 31.7% | 30.2% | 20% | 20.8% | inhibition at 50 mg/kg [14]: 33.3%
4 | CC1=NNC(=O)N(NS(=O)(=O)c2ccc(C#N)cc2)C1 [Ia-25, 4-cyano-N-(6-methyl-3-oxo-2,3-dihydro-1,2,4-triazin-4(5H)-yl)-benzenesulfonamide] | 17.2% | 8.8% | 12% | 18.7% | 35% | 100% | 100% | 100% | 4.1% | 22.2% | 0% | 5.4% | 10% | 16.4% | 14.3% | 25% | 26.3% | 13.9% | 85% | 24.6% | insecticidal activity against aphides compared with pymetrozine [6]: equivalent to the insecticidal activity of pymetrozine; mortality at 5 mg/kg [6, 20]: 20%; mortality at 2 mg/kg [7]: 40%; mortality at 5 mg/kg [7]: 100%
5 | CC1=NNC(=O)N(NS(=O)(=O)c2ccccc2)C1 [Ia-9, N-(6-methyl-3-oxo-2,3-dihydro-1,2,4-triazin-4(5H)-yl)-benzenesulfonamide] | – | 0% | 15.8% | 22.2% | 30% | 100% | 100% | 100% | 24.1% | 26.5% | 12.5% | 0% | 35% | 9.5% | 40.9% | 25% | 40% | 50.8% | 100% | 12.5% | inhibition at 50 mg/kg [1]: 22.2%; insecticidal activity against aphides compared with pymetrozine [6]: equivalent to the insecticidal activity of pymetrozine; mortality at 5 mg/kg [6, 20]: 30%; mortality at 2 mg/kg [7]: 10%; mortality at 5 mg/kg [7]: 80%
6 | CC1=NNC(=O)N(N(S(=O)(=O)c2ccc(C)cc2)S(=O)(=O)c2ccc(C)cc2)C1 [Ib-6, 4-methyl-N-(6-methyl-3-oxo-2,3-dihydro-1,2,4-triazin-4(5H)-yl)-N-(4-methylbenzenesulfonyl)benzenesulfonamide] | – | 0% | 15.8% | 22.2% | 15% | 80% | 100% | 35% | 27.6% | 26.5% | 16.7% | 13.3% | 15% | 23.8% | 56.8% | 15% | 15% | 50.8% | 30% | 29.2% | inhibition at 50 mg/kg [1]: 22.2%
7 | N#Cc1c(Cl)c(Cl)c(Cl)c(C#N)c1Cl [Chlorothalonil, reference compound] | 100% | 100% | 73.3% | 86.4% | – | – | – | – | 100% | 100% | 91.3% | < 50% | – | 73.3% | 100% | – | < 50% | 100% | – | 91.3% | –
8 | COC(=O)Nc1nc2ccccc2[nH]1 [Carbendazim, reference compound] | < 50% | < 50% | < 50% | 100% | – | – | – | – | < 50% | < 50% | 100% | 100% | – | < 50% | 100% | – | 100% | 100% | – | 100% | –
